Results: US8697382B2, “Method of identifying metallo-β-lactamase-producing bacteria” (Meiji Seika Pharma Co., Ltd., priority 2009, dated 2014)

System: IMP-1-producing Pseudomonas aeruginosa
Assay: Disk diffusion test: β-lactam agent disks placed 20 mm from a central compound (I) disk; growth inhibition zone radius measured
Type: cell-based
Conditions: Muller-Hinton agar, overnight culture at 35° C.; for Ratio = Maximum/Minimum inhibition zone radius (degree of change in radius, A3/B3/C3): change caused by the compound (I) disk; for Inhibition zone radius, Maximum (A2/B2/C2): subzone on the compound (I) (disodium 2,3-diethylmaleate) disk side, subject to the metallo-β-lactamase inhibitor; for Inhibition zone radius, Minimum (A1/B1/C1): subzone on the side opposite to the compound (I) disk, not subject to the metallo-β-lactamase inhibitor
Source text: When the bacteria to be tested are MBL-producing bacteria, the shape of an inhibition zone formed around each β-lactam agent varies depending on the effect of the metallo-β-lactamase inhibitor (compound (I)). In this case, the inhibition zone formed around each β-lactam agent can be divided into two subzones (i.e., an inhibition subzone formed on the side opposite to the compound (I)-containing disk and an inhibition subzone formed on the compound (I)-containing disk side) by measurement along the center lines of the β-lactam agent-containing and compound (I)-containing disks (FIG. 1).
The inhibition subzone formed on the side opposite to the compound (I)-containing disk is not subject to the effect of the metallo-β-lactamase inhibitor. Thus, its radius can be minimized in the whole inhibition zone (e.g., the numerical value obtained here can be defined as “A1”, “B1” and “C1” for the β-lactam agents (A), (B) and (C), respectively (Table 1)). When no inhibition zone is formed, the radius of the disk can be used.
The inhibition subzone formed on the compound (I)-containing disk side is subject to the effect of the metallo-β-lactamase inhibitor. Thus, its radius can be maximized in the whole inhibition zone (e.g., the numerical value obtained here can be defined as “A2”, “B2” and “C2” for the β-lactam agents (A), (B) and (C), respectively (Table 1)). When no inhibition zone is formed, the radius of the disk can be used. Moreover, when the formed inhibition zone is wider than the distance between the disks, the distance from the center of the drug-containing disk to the compound (I)-containing disk can be used (e.g., “A2” in the flow 8 in the flowchart of FIG. 2 represents the distance from the center of the β-lactam agent (A)-containing disk to the compound (I)-containing disk).
The degree of change in the shape of the inhibition zone caused by the effect of the metallo-β-lactamase inhibitor can be measured as the ratio between the minimum and maximum radiuses of the inhibition zone, i.e., the degree of change in radius. For example, it can be calculated by dividing the maximum radius of the inhibition zone by the minimum radius thereof (e.g., this calculated value can be defined as “A3”, “B3”, and “C3”, respectively (Table 1)).
According to the disk diffusion method specified by CLSI, a Muller-Hinton agar medium was coated with a bacterial solution adjusted to McFarland standard turbidity of 0.5. No water droplet of the bacterial solution on the medium surface was confirmed, and round filter papers (diameter: approximately 6 mm) respectively containing 300 μg of a compound (I), 100 μg of biapenem as a drug (A), 100 μg of imipenem as a drug (B), and 300 μg of ceftazidime as a drug (C) were placed thereonto as drug-containing disks. The compound (I) used was a compound represented by the formula (I) wherein both R^1 and R^2 are an ethyl group, and M^1 is a sodium cation (disodium 2,3-diethylmaleate). The compound (I) was placed at the center of the agar medium, while the drugs (A) to (C) were placed such that the center of each disk was 20 mm distant from the center of the compound (I). After overnight culture at 35° C., the minimum and maximum radiuses of a growth inhibition zone around each disk were measured, and the degree of change in radius was calculated according to Table 1. The IMP or VIM MBL-producing bacteria were identified using a decision flow of FIG. 2.
In Example 2, bacteria to be tested were IMP-1-producing Pseudomonas aeruginosa. According to the disk diffusion method specified by CLSI, a Muller-Hinton agar medium was coated with the Pseudomonas aeruginosa, and disks were then placed thereonto.
In FIG. 4, the upper disk contained biapenem (BIPM) (A); the lower right disk contained imipenem (IPM) (B); the lower left disk contained ceftazidime (CAZ) (C); and the central disk was a compound (I)-containing disk. […]

Structure (SMILES) | Ratio = Maximum/Minimum inhibition zone radius (degree of change in radius, A3/B3/C3) | Inhibition zone radius, Maximum (A2/B2/C2) [mm] | Inhibition zone radius, Minimum (A1/B1/C1) [mm]
C[C@@H](O)[C@H]1C(=O)N2C(C(=O)[O-])=C(SC3Cn4cnc[n+]4C3)[C@H](C)[C@H]12 (stereo partly drawn) [biapenem] | 2.9 | 16.0 | 5.5
CC(C)(O/N=C(\C(=O)N[C@@H]1C(=O)N2C(C(=O)[O-])=C(C[n+]3ccccc3)CS[C@H]12)c1csc(N)n1)C(=O)O [ceftazidime] | 4.1 | 14.5 | 3.5
C[C@@H](O)[C@H]1C(=O)N2C(C(=O)O)=C(SCCN=CN)C[C@H]12 [imipenem] | 2.2 | 14.0 | 6.5
